Measured values reported in paper PMC7156458, “Synthetic biology based construction of biological activity-related library of fungal decalin-containing diterpenoid pyrones” (Nature Communications, 2020).
Where “and” joins values, the source holds several entries; their conditions need not be identical. Equal values may be shown once. Read-outs that look alike come from different tables or passages of the source.

Assays:
IMD pathway = IMD pathway inhibition, Attacin promoter luciferase assay in l(2)mbn cells; assay type: cell-based, Drosophila; details: for IC50: IMD pathway; for activity at 0.2 µM / activity at 0.4 µM / activity at 0.8 µM / activity at 1 µM / Promoter Activity (%): heat-killed E. coli
Aβ42 = Aβ42 (Homo sapiens, UniProt P05067); assay: TEM analysis of amyloid fibrils formed by Aβ42; assay type: biochemical
[1] = cytotoxicity in the anti-HIV assay (CC50); assay type: cell-based; details: human, MAGI cells (HeLa-CD4-LTR/beta-galactosidase)
ACHN = assay: cells; design: JFCR39 human cancer cell line panel, antiproliferative dose response (optical density), GI50; details: Homo sapiens, ACHN
Description: (§1) Initially, we evaluated new DDP analogues for their antiproliferative activities across the panel of 39 human cancer cell lines, JFCR39[50],[51]. […] Purified DDPs was dissolved in DMSO (Specially Prepared Reagent, Nuclease and Protease tested, NACALAI, 09659-14) to prepare 5 mM solutions. The Each DDP solution (5 mM) was used for antiproliferative effects on cancer cell lines (Supplementary Notes 23, 24, 25, 26), biological activity against Drosophila (Supplementary Note 27), anti-HIV assay (Supplementary Note 28) and screening of amyloid Ab42 aggregation inhibitors (Supplementary Notes 29).

BSY-1 = assay: cells; design: JFCR39 human cancer cell line panel, antiproliferative dose response (optical density), GI50; details: BSY-1
Description: as §1

HBC-4 = assay: cells; design: JFCR39 human cancer cell line panel, antiproliferative dose response (optical density), GI50; details: HBC4
Description: as §1

HCC2998 = assay: cells; design: JFCR39 human cancer cell line panel, antiproliferative dose response (optical density), GI50; details: Homo sapiens, HCC 2998
Description: as §1

HCT-15 = assay: cells; design: JFCR39 human cancer cell line panel, antiproliferative dose response (optical density), GI50; details: Homo sapiens, HCT-15
Description: as §1

KM-12 = assay: cells; design: JFCR39 human cancer cell line panel, antiproliferative dose response (optical density), GI50; details: Homo sapiens, KM12
Description: as §1

LOX-IMVI = assay: cells; design: JFCR39 human cancer cell line panel, antiproliferative dose response (optical density), GI50; details: Homo sapiens, LOX IMVI
Description: as §1

MCF-7 = assay: cells; design: JFCR39 human cancer cell line panel, antiproliferative dose response (optical density), GI50; details: Homo sapiens, MCF7
Description: as §1

MKN1 = assay: cells; design: JFCR39 human cancer cell line panel, antiproliferative dose response (optical density), GI50; details: Homo sapiens, MKN-1
Description: as §1

MKN45 = assay: cells; design: JFCR39 human cancer cell line panel, antiproliferative dose response (optical density), GI50; details: Homo sapiens, MKN-45
Description: as §1

NCI-H522 = assay: cells; design: JFCR39 human cancer cell line panel, antiproliferative dose response (optical density), GI50; details: Homo sapiens, NCI-H522
Description: as §1

OVCAR-5 = assay: cells; design: JFCR39 human cancer cell line panel, antiproliferative dose response (optical density), GI50; details: Homo sapiens, OVCAR-5
Description: as §1

SF-268 = assay: cells; design: JFCR39 human cancer cell line panel, antiproliferative dose response (optical density), GI50; details: Homo sapiens, SF-268
Description: as §1

SNB-75 = assay: cells; design: JFCR39 human cancer cell line panel, antiproliferative dose response (optical density), GI50; details: Homo sapiens, SNB-75
Description: as §1

SNB-78 = assay: cells; design: JFCR39 human cancer cell line panel, antiproliferative dose response (optical density), GI50; details: Homo sapiens, SNB-78
Description: as §1

St-4 = assay: cells; design: JFCR39 human cancer cell line panel, antiproliferative dose response (optical density), GI50; details: Homo sapiens, St-4
Description: as §1

MKN-B = assay: cells; design: JFCR39 human cancer cell line panel, antiproliferative dose response (optical density), GI50
Description: as §1

NCI-H460 = assay: cells; design: JFCR39 human cancer cell line panel, antiproliferative dose response (optical density), GI50; details: Homo sapiens, NCI-H460
Description: as §1

Aβ42, sequence (P05067 672-713): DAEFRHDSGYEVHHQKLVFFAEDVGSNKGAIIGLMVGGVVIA

With `C=C1CCC2C(C)(CCC=C(C)C)C(O)CCC2(C)C1Cc1c(OC)oc(CO)c(C(=O)OC)c1=O` (stereo not shown) [Compound 13] the “inhibitory effect on the IMD pathway” value (IMD pathway) was “moderate inhibitory effect” and the “formation of typical amyloid fibrils of Aβ42” value (Aβ42) was “strongly prevented”.
With `C=C1CC[C@@H]2[C@](C)(CC[C@H]3O[C@H](C=C(C)C)C[C@@]23C)[C@@H]1Cc1c(OC)oc(CO)c(C(=O)OC)c1=O` [Compound 21] the “Inhibitory effect (%)” value (IMD pathway; 0.4 µM, single wells) was 89.37% and 87.09%, the “Inhibitory effect (%)” value (IMD pathway; 0.8 µM, single wells) was 98.99% and 96.72% and the “Inhibitory effect (%)” value (IMD pathway; 1 µM, single wells) was 98.29% and 97.94%. It also gave an inhibition at 0.4 µM (IMD pathway; Drosophila melanogaster, 0.4 µM, single wells, read-out: Inhibitory effect (%)) of 85.2%, an inhibition at 0.8 µM (IMD pathway; Drosophila melanogaster, 0.8 µM, single wells, read-out: Inhibitory effect (%)) of 96.5% and an inhibition at 1 µM (IMD pathway; Drosophila melanogaster, 1 µM, single wells, read-out: Inhibitory effect (%)) of 100%. It also gave an IC50 (IMD pathway; Drosophila melanogaster, read-out: IC50) of 0.27 ± 0.01 µM, an IC50 (IMD pathway; Drosophila melanogaster, read-out: IC50 Average) of 0.273 µM and an IC50 (IMD pathway; Drosophila melanogaster, single determinations, read-out: IC50 (IC50 1, 2, 3)) of 0.26 µM. It also gave an activity at 0.2 µM (IMD pathway; Drosophila melanogaster, 0.2 µM, read-out: Promoter Activity (%) Average) of 81.5%, an activity at 0.2 µM (IMD pathway; Drosophila melanogaster, 0.2 µM, read-out: Promoter Activity (%) Final) of 81.5% and an activity at 0.2 µM (IMD pathway; Drosophila melanogaster, 0.2 µM, single wells, read-out: Promoter Activity (%)) of 73.6%. For the same molecule, the activity at 0.4 µM (IMD pathway; Drosophila melanogaster, 0.4 µM, read-out: Promoter Activity (%) Average) was 12.8%, the activity at 0.4 µM (IMD pathway; Drosophila melanogaster, 0.4 µM, read-out: Promoter Activity (%) Final) was 12.8% and the activity at 0.4 µM (IMD pathway; Drosophila melanogaster, 0.4 µM, single wells, read-out: Promoter Activity (%)) was 14.8%. It also gave an activity at 0.8 µM (IMD pathway; Drosophila melanogaster, 0.8 µM, read-out: Promoter Activity (%) Average) of 2.58%, an activity at 0.8 µM (IMD pathway; Drosophila melanogaster, 0.8 µM, read-out: Promoter Activity (%) Final) of 2.58% and an activity at 1 µM (IMD pathway; Drosophila melanogaster, 1 µM, read-out: Promoter Activity (%) Average) of 1.26%. The activity at 1 µM (IMD pathway; Drosophila melanogaster, 1 µM, read-out: Promoter Activity (%) Final) was 1.26%, the IC50 (IMD pathway; single determinations, read-out: IC50 (IC50 1, 2, 3)) was 0.29 µM and the “Promoter Activity (%)” value (IMD pathway; 0.2 µM, single wells) was 82.38% and 88.33%. For the same molecule, the “Promoter Activity (%)” value (IMD pathway; 0.4 µM, single wells) was 10.63% and 12.91%, the “Promoter Activity (%)” value (IMD pathway; 0.8 µM, single wells) was 3.46% and 1.01% and 3.28% and the “Promoter Activity (%)” value (IMD pathway; 1 µM, single wells) was 0.00% and 1.71% and 2.06%. The “formation of typical amyloid fibrils of Aβ42” value (Aβ42) was “strongly prevented”.
In the case of `C=C1CC[C@@H]2[C@](C)(CC[C@H]3O[C@H](C=C(C)C)C[C@@]23C)[C@@H]1Cc1c(OC)oc(CO)c(C)c1=O` [Compound 20], the CC50 [1] is reported as > 10 µM.
For `C=C1CCC2C3(C)CC(C=C(C)C)OC3CCC2(C)C1Cc1c(OC)oc(C)c(C)c1=O` (stereo not shown) [Compound 23], the GI50 (ACHN) was 11.8 µM, the GI50 (BSY-1) was 10.3 µM and the GI50 (HBC-4) was 13.2 µM. For the same molecule, the GI50 (HCC2998) was 12 µM, the GI50 (HCT-15) was 0.983 µM and the GI50 (KM-12) was 10.3 µM. The GI50 (LOX-IMVI) was 0.604 µM, the GI50 (MCF-7) was 1.01 µM and the GI50 (MKN1) was 13.2 µM. For the same molecule, the GI50 (MKN45) was 11.1 µM, the GI50 (NCI-H522) was 0.721 µM and the GI50 (OVCAR-5) was 15.4 µM. The GI50 (SF-268) was 8.62 µM, the GI50 (SNB-75) was 13.3 µM and the GI50 (SNB-78) was 12.3 µM. The GI50 (St-4) was 12.4 µM.
With `C=C1CC[C@H]2[C@]3(C)C[C@H](C=C(C)C)O[C@H]3CC[C@]2(C)[C@@H]1Cc1c(OC)oc(C)c(C)c1=O` [Compound 24] the GI50 (ACHN) was 11.6 µM, the GI50 (BSY-1) was 9.59 µM and the GI50 (HBC-4) was 13.4 µM. For the same molecule, the GI50 (HCC2998) was 12.7 µM, the GI50 (KM-12) was 9.49 µM and the GI50 (LOX-IMVI) was 0.929 µM. It also gave a GI50 (MCF-7) of 1.53 µM, a GI50 (MKN-B) of 1.28 µM and a GI50 (MKN1) of 12.2 µM. The GI50 (MKN45) was 9.14 µM, the GI50 (NCI-H460) was 0.0901 µM and the GI50 (NCI-H522) was 0.754 µM. For the same molecule, the GI50 (OVCAR-5) was 14.5 µM, the GI50 (SF-268) was 8.09 µM and the GI50 (SNB-75) was 13.9 µM. It also gave a GI50 (SNB-78) of 12.9 µM and a GI50 (St-4) of 12.2 µM.
